Source: patent US20230131899A1, “INHIBITORS OF MICROBIALLY INDUCED AMYLOID” (Axial Therapeutics, Inc., priority 2020, published 2023)
Like-named read-outs stand apart in the source and are kept apart here.

Tested on: CsgA gene expression (csgBAC promoter-GFP reporter) in E. coli UTI89
Experiment: In vitro live cell fluorescent reporter assay of CsgA transcription (Reporter Assay)
Format: cell-based
Conditions: Escherichia coli
Protocol: In vitro live cell fluorescent reporter assay to determine effects of compounds on CsgA transcription. To assess the impact of compounds on CsgA gene expression, a live cell assay was performed using an engineered strain of E. coli UTI89 with a fluorescent CsgA gene expression reporter driven by the csgBAC promoter. In the reporter strain, a gene encoding Green Fluorescent Protein (GFP) was placed immediately downstream of the full intergenic region between csgDEF and csgBAC, containing the csgBAC promoter and other transcriptional regulatory elements, and inserted in single copy into the E. coli UTI89 chromosome, as described in Cegelski et. al., “Small-molecule inhibitors target Escherichia coli amyloid biogenesis and biofilm formation,” Nat. Chem. Bio., 25 Oct. 2009. With this construct, GFP expression in the reporter strain was under the same regulation as CsgA expression. The reporter strain was struck out on a YESCA agar plate (1 g/L yeast extract, 10 g/L casamino acids, 20 g/L Bacto Agar) and grown at about 27° C. for 2 days, or until single colonies were sufficiently large to pick. A single colony of the reporter strain was used to inoculate 5 mL of YESCA broth (1 g/L yeast extract, 10 g/L casamino acids), which was grown overnight at about 27° C. The inoculum was diluted 1:10 in YESCA broth and the optical density at 600 nm (OD600) was measured on a SpectraMax M2 or M5e (Molecular Devices, San Jose, Calif.) spectrophotometer in cuvettes. The culture was then further diluted to achieve a final OD600 of 0.003, which was confirmed by measurement of the OD600. Compounds were diluted in dimethyl sulfoxide (DMSO) and plated on black clear-bottomed tissue culture-treated 96-well plates with 1.5 μL/well for final test concentrations from 0.14-100 μM. All assay wells, including vehicle controls and positive controls for inhibition, included 1% DMSO final. Vehicle control wells consisted of DMSO and the reporter strain to assess the expression of the reporter strain in the assay in the absence of any compound. […] 148.5 μL culture at OD600 0.003 in YESCA broth was added to all wells for 150 μL final volume. Plates were incubated at 27° C. for 20 hours, then GFP fluorescence signal for each well was read on a Spectramax M2 or M5e plate reader with excitation at 485 nm, emission at 525 nm, and a cutoff at 515 nm. OD600 for each well was also measured on the Spectramax M2 or M5e plate reader. […] Background fluorescence was subtracted from all wells, then fluorescence signal for each well was normalized to the mean of the vehicle control wells. Normalized dose response curves were plotted for each compound, and compound inhibition of CsgA transcription was determined by assessing the curve-fit IC50, bottom, top, span (top-bottom), and Hill slope using GraphPad Prism software version 8.1.1 (GraphPad Software, San Diego, Calif.). An additional metric used to evaluate compounds was the concentration at which the curve reached 50% of the expression level of the vehicle control. This was written as a custom analysis in GraphPad Prism according to the formula X[50], or the X value at which Y=50, ie, the compound concentration at which fluorescence of the reporter strain was calculated to reach 50% of the vehicle control fluorescence. Separately from the fluorescence data, OD600 values were normalized to the mean of the vehicle control wells, and dose response curves were plotted for each compound. OD600 reduction of greater than 10% indicated compounds had some toxicity or negative impact on bacterial growth. […]

[1] = read-out: Reporter Assay Abs IC50 (μM), median Abs IC50 in the CsgA reporter assay, N/A = maximum expression reduction is <50% of control
[2] = read-out: Reporter Assay Abs IC50, activity range, class symbol
[3] = read-out: Reporter Assay Abs IC50 (activity range), median Abs IC50 in the CsgA reporter assay, class symbol

Compound | IC50 [1] | IC50 [2] | IC50 [3]
O=C(O)C1CN(Cc2ccccc2)c2c(-c3cccc(C(F)(F)F)c3)c(Cc3cccc4cccnc34)cc(=O)n21 (stereo not shown) [Compound 224, 1-benzyl-5-oxo-7-(quinolin-8-ylmethyl)-8-(3-(trifluoromethyl)phenyl)-1,2,3,5-tetrahydroimidazo[1,2-a]pyridine-3-carboxylic acid] | 9.7 µM | 4.6 to 10 µM | –
CC(C)(C)c1ccc(Cc2cc(=O)n3c(c2-c2cccc(C(F)(F)F)c2)N(Cc2ccccc2)CC3C(=O)O)cc1 (stereo not shown) [Compound 227, 1-benzyl-7-(4-(tert-butyl)benzyl)-5-oxo-8-(3-(trifluoromethyl)phenyl)-1,2,3,5-tetrahydroimidazo[1,2-a] pyridine-3-carboxylic acid] | 1.8 µM | 1.3 to 4.5 µM | –
CCCCN1CC(C(=O)O)n2c(c(-c3cccc(C(F)(F)F)c3)c(Cc3cccc4ccccc34)cc2=O)S1(=O)=O (racemic) [Compound 021, 2-butyl-8-(naphthalen-1-ylmethyl)-6-oxo-9-(3-(trifluoromethyl)phenyl)-3,4-dihydro-2H,6H-pyrido[1,2-e][1,2,5]thiadiazine-4-carboxylic acid 1,1-dioxide] | 2.6 µM | – | 1.3 to 4.5 µM
COc1ccc(Cc2cc(=O)n3c(c2-c2cccc(C(F)(F)F)c2)N(Cc2ccccc2)CC3C(=O)O)c2ccccc12 (stereo not shown) [Compound 220, 1-benzyl-7-((4-methoxynaphthalen-1-yl)methyl)-5-oxo-8-(3-(trifluoromethyl)phenyl)-1,2,3,5-tetrahydroimidazo[1,2-a]pyridine-3-carboxylic acid] | 1.2 µM | < 1.3 µM | –
CC(C)(C)c1cccc(Cc2cc(=O)n3c(c2-c2cccc(C(F)(F)F)c2)N(Cc2ccccc2)CC3C(=O)O)c1 (stereo not shown) [Compound 226, 1-benzyl-7-(3-(tert-butyl)benzyl)-5-oxo-8-(3-(trifluoromethyl)phenyl)-1,2,3,5-tetrahydroimidazo[1,2-a] pyridine-3-carboxylic acid] | 2.7 µM | – | –
O=C(O)C1CN(Cc2ccccc2)c2c(-c3cccc(C(F)(F)F)c3)c(CN3CCCc4ccccc43)cc(=O)n21 (stereo not shown) [Compound 228, 1-benzyl-7-((3,4-dihydroquinolin-1 (2H)-yl)methyl)-5-oxo-8-(3-(trifluoromethyl)phenyl)-1,2,3,5-tetrahydroimidazo[1,2-a]pyridine-3-carboxylic acid] | 3.9 µM | 1.3 to 4.5 µM | –
O=C(O)C1CN(Cc2ccccc2)c2c(-c3cccc(C(F)(F)F)c3)c(Cc3cncc4ccccc34)cc(=O)n21 (stereo not shown) [Compound 221, 1-benzyl-7-(isoquinolin-4-ylmethyl)-5-oxo-8-(3-(trifluoromethyl)phenyl)-1,2,3,5-tetrahydroimidazo[1,2-a]pyridine-3-carboxylic acid] | 6.7 µM | 4.6 to 10 µM | –
O=C(O)c1c[nH]c2c(-c3cccc(C(F)(F)F)c3)c(Cc3cccc4ccccc34)cc(=O)n12 [Compound 110, 7-(naphthalen-1-ylmethyl)-5-oxo-8-(3-(trifluoromethyl)phenyl)-1,5-dihydroimidazo[1,2-a]pyridine-3-carboxylic acid] | 13.7 µM | – | > 10 µM
O=C(O)C1CN(Cc2ccccc2)c2c(-c3cccc(C(F)(F)F)c3)c(CN3CCC[C@H](c4ccccc4)C3)c(Cl)c(=O)n21 (stereo partly drawn) [Compound 237, 1-benzyl-6-chloro-5-oxo-7-(((R)-3-phenylpiperidin-1-yl)methyl)-8-(3-(trifluoromethyl)phenyl)-1,2,3,5-tetrahydroimidazo[1,2-a]pyridine-3-carboxylic acid] | 1.3 µM | 1.3 to 4.5 µM | –
O=C(O)C1CN(Cc2ccccc2)c2c(-c3cccc(C(F)(F)F)c3)c(CN3CCC[C@@H](c4ccccc4)C3)c(Cl)c(=O)n21 (stereo partly drawn) [Compound 230, 1-benzyl-6-chloro-5-oxo-7-(((S)-3-phenylpiperidin-1-yl)methyl)-8-(3-(trifluoromethyl)phenyl)-1,2,3,5-tetrahydroimidazo[1,2-a]pyridine-3-carboxylic acid] | 1.2 µM | < 1.3 µM | –
O=C(O)C1CN(Cc2ccccc2)c2c(-c3cccc(C(F)(F)F)c3)c(CCc3ccccc3)c(Cl)c(=O)n21 (stereo not shown) [Compound 240, 1-benzyl-6-chloro-5-oxo-7-phenethyl-8-(3-(trifluoromethyl)phenyl)-1,2,3,5-tetrahydroimidazo[1,2-a]pyridine-3-carboxylic acid] | 1.4 µM | 1.3 to 4.5 µM | –
O=C(O)C1CN(Cc2ccccc2)c2c(-c3cccc(C(F)(F)F)c3)c(Cc3ccccc3)cc(=O)n21 (stereo not shown) [Compound 235, 1,7-dibenzyl-5-oxo-8-(3-(trifluoromethyl)phenyl)-1,2,3,5-tetrahydroimidazo[1,2-a]pyridine-3-carboxylic acid] | 2.7 µM | 1.3 to 4.5 µM | –
O=C(O)C1CN(Cc2ccccc2)c2c(-c3cccc(C(F)(F)F)c3)c(Cc3cccc4ncccc34)cc(=O)n21 (stereo not shown) [Compound 222, 1-benzyl-5-oxo-7-(quinolin-5-ylmethyl)-8-(3-(trifluoromethyl)phenyl)-1,2,3,5-tetrahydroimidazo[1,2-a]pyridine-3-carboxylic acid] | 31.8 µM | > 10 µM | –
O=C(O)C1CN(Cc2ccccc2)c2c(-c3cccc(C(F)(F)F)c3)c(CCc3ccccc3)cc(=O)n21 (stereo not shown) [Compound 236, 1-benzyl-5-oxo-7-phenethyl-8-(3-(trifluoromethyl)phenyl)-1,2,3,5-tetrahydroimidazo[1,2-a]pyridine-3-carboxylic acid] | 1.7 µM | 1.3 to 4.5 µM | –
CN1CC(C(=O)O)n2c(c(-c3cccc(C(F)(F)F)c3)c(Cc3cccc4ccccc34)cc2=O)S1(=O)=O (racemic) [Compound 008, 2-methyl-8-(naphthalen-1-ylmethyl)-6-oxo-9-(3-(trifluoromethyl)phenyl)-3,4-dihydro-2H,6H-pyrido[1,2-e][1,2,5]thiadiazine-4-carboxylic acid 1,1-dioxide] | 4.3 µM | – | 1.3 to 4.5 µM
O=C(O)C1CN(Cc2ccccc2)c2c(-c3cccc(C(F)(F)F)c3)c(Cc3ccc(Cl)c4ccccc34)c(Cl)c(=O)n21 (stereo not shown) [Compound 225, 1-benzyl-6-chloro-7-((4-chloronaphthalen-1-yl)methyl)-5-oxo-8-(3-(trifluoromethyl)phenyl)-1,2,3,5-tetrahydroimidazo[1,2-a]pyridine-3-carboxylic acid] | 1.6 µM | 1.3 to 4.5 µM | –
O=C(O)C1CN(Cc2ccccc2)c2c(-c3cccc(C(F)(F)F)c3)c(CN3CCC[C@@H](c4ccccc4)C3)cc(=O)n21 (stereo partly drawn) [Compound 231, 1-benzyl-5-oxo-7-(((S)-3-phenylpiperidin-1-yl)methyl)-8-(3-(trifluoromethyl)phenyl)-1,2,3,5-tetrahydroimidazo[1,2-a]pyridine-3-carboxylic acid] | 3.4 µM | 1.3 to 4.5 µM | –
COc1ccc(Cc2c(-c3cccc(C(F)(F)F)c3)c3n(c(=O)c2Cl)C(C(=O)O)CN3Cc2ccccc2)c2ccccc12 (stereo not shown) [Compound 219, 1-benzyl-6-chloro-7-((4-methoxynaphthalen-1-yl)methyl)-5-oxo-8-(3-(trifluoromethyl)phenyl)-1,2,3,5-tetrahydroimidazo[1,2-a]pyridine-3-carboxylic acid] | 0.8 µM | < 1.3 µM | –
O=C(O)C1CN(Cc2ccccc2)c2c(-c3cccc(C(F)(F)F)c3)c(Cc3cccc4cnccc34)cc(=O)n21 (stereo not shown) [Compound 223, 1-benzyl-7-(isoquinolin-5-ylmethyl)-5-oxo-8-(3-(trifluoromethyl)phenyl)-1,2,3,5-tetrahydroimidazo[1,2-a] pyridine-3-carboxylate] | 21.7 µM | > 10 µM | –
